Results from patent US7713994B2 (Wyeth LLC, priority 2005, dated 2010).
pIC50: −log10 of the molar value. Where two headings read alike, the source gives them in different places.

Assays:
cyclin D1/cdk 4 enzyme = biological target: T1, cyclin D1/cdk 4 enzyme (Homo sapiens, UniProt P11802); experiment: CDK4 ELISA kinase assay (phospho-Rb ser 795 detection); format: biochemical
T1 construct: made in house; host or cells: Sf9 insect cells, recombinant baculovirus
Method in brief: (§1)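 Sf9-derived cyclin/CDK, 200 μM ATP, immobilized GST-Rb; 30° C/1 h. Detection: phospho-Ser795 Ab, HRP, TMB, OD450.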

cyclin E/CDK2 enzyme = biological target: T2, cyclin E/CDK2 enzyme (Homo sapiens, UniProt P24941); experiment: CDK2 ELISA kinase assay (phospho-Rb ser 795 detection); format: biochemical
T2 construct: made in house; host or cells: Sf9 insect cells, recombinant baculovirus
Method in brief: as §1

cyclin B/CDK1 enzyme = biological target: T3, cyclin B/CDK1 enzyme (Homo sapiens, UniProt P06493); experiment: CDK1 ELISA kinase assay (phospho-Rb ser 795 detection); format: biochemical
T3 construct: purchased New England BioLabs; host or cells: Sf9 insect cells, recombinant baculovirus
T3 sequence (P06493 whole entry): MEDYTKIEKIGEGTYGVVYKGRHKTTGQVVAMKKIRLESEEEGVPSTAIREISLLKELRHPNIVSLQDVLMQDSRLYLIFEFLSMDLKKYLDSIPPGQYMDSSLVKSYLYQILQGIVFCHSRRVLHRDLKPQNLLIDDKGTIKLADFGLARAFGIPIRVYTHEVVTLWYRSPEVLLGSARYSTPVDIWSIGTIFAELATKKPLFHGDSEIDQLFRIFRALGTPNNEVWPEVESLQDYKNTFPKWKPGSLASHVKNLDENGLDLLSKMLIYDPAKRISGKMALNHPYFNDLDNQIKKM
T3 sequence (P14635 whole entry partner): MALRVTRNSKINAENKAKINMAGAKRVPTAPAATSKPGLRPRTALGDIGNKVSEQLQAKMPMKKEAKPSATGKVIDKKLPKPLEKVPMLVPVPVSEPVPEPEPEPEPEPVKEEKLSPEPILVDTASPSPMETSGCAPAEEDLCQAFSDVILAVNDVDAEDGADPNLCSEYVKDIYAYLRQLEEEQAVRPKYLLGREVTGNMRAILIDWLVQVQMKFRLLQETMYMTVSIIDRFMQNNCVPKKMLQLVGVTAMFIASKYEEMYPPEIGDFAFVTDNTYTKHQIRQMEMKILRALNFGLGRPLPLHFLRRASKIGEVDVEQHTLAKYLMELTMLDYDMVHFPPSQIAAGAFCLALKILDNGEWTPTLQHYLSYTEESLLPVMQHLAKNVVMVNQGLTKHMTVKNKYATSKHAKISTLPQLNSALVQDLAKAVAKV
Method in brief: as §1

BT474 = experiment: Cytotoxicity assay (SRB), BT474; format: cell-based
Method in brief: (§2)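 Cells seeded overnight at 37 °C, 7% CO2 (BT474 12000, HCT-116 4000, LoVo and MCF-7 6000 cells/well) in RPMI 1640 with 5% FBS, then exposed to compound dilutions for 3 days (BT474 6 days). Survival versus untreated controls by TCA fixation and SRB staining, absorbance 540 nm.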

HCT-116 = experiment: Cytotoxicity assay (SRB), HCT-116; format: cell-based; settings: Homo sapiens, HCT-116, 72 h, HCT116 cells, SRB, read-out: In Vitro Cellular Activity IC50 HCT116
Method in brief: as §2

LoVo = experiment: Cytotoxicity assay (SRB), LoVo; format: cell-based; settings: Homo sapiens, LoVo, 72 h, LoVo cells, SRB, read-out: In Vitro Cellular Activity IC50 LOVO
Method in brief: as §2

MCF-7 = experiment: Cytotoxicity assay (SRB), MCF-7; format: cell-based; settings: Homo sapiens, MCF7, 72 h, MCF-7 cells, SRB, read-out: In Vitro Cellular Activity IC50 MCF-7
Method in brief: as §2

[1] = In Vitro Enzyme Assays, 200 μM ATP, read-out: CDK4 IC50
[2] = In Vitro Enzyme Assays, read-out: CDK2 IC50
[3] = In Vitro Enzyme Assays, read-out: CDK1 IC50
[4] = Homo sapiens, BT-474, 144 h, BT474 cells, SRB, 6 days; read-out: In Vitro Cellular Activity IC50 BT474
[5] = In Vitro Enzyme Assay, cyclin D1/cdk 4, read-out: CDK4 IC50
[6] = In Vitro Enzyme Assay, cyclin E/CDK2, read-out: CDK2 IC50
[7] = In Vitro Enzyme Assay, cyclin B/CDK1, read-out: CDK1 IC50
[8] = Homo sapiens, BT-474, 144 h, BT474 cells, 6 days, SRB; read-out: In Vitro Cellular Activity IC50 BT474

T1 sequence (P11802 whole entry, species assumed): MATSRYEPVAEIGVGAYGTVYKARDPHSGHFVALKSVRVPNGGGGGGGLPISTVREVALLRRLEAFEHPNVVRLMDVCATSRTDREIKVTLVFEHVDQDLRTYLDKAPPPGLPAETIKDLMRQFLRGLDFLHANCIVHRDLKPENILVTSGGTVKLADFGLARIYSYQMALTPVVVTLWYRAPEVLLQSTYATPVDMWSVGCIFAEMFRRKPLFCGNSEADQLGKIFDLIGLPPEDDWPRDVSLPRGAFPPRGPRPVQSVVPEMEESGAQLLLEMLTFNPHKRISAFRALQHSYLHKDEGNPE
T1 sequence (P24385 whole entry partner, species assumed): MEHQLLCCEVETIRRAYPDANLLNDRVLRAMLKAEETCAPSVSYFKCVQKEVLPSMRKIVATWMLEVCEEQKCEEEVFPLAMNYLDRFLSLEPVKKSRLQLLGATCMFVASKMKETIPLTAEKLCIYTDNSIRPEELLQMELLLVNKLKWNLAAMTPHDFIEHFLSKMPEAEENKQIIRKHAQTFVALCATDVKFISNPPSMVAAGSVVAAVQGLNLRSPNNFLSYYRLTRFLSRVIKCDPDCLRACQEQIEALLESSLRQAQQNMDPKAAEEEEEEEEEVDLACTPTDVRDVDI

Compound | pIC50 (cyclin D1/cdk 4 enzyme; [1]) | pIC50 (cyclin E/CDK2 enzyme; [2]) | pIC50 (cyclin B/CDK1 enzyme; [3]) | melting point | pIC50 (cyclin D1/cdk 4 enzyme; [5]) | pIC50 (cyclin E/CDK2 enzyme; [6]) | pIC50 (cyclin B/CDK1 enzyme; [7]) | pIC50 (BT474; [4]) | pIC50 (HCT-116; three days) | pIC50 (LoVo; three days) | pIC50 (MCF-7; three days) | pIC50 (BT474; [8]) | pIC50 (HCT-116; 3 days) | pIC50 (LoVo; 3 days) | pIC50 (MCF-7; 3 days)
COc1cc2c(cc1-c1ccc(F)cc1)/C(=C/Nc1ccc(CN3CCCCC3)cc1)C(=O)NC2=O [Example 253, 6-(4-Fluoro-phenyl)-7-methoxy-4-[(4-piperidin-1-ylmethyl-phenylamino)-methylene]-4H-isoquinoline-1,3-dione] | 5.54 | < 4.30 | < 4.30 | 227 to 230 °C |  |  |  | 5.55 | 5.96 | 5.59 | 5.70 |  |  |  | 
CN(C)C1CCN(Cc2ccc(N/C=C3\C(=O)NC(=O)c4ccc(-c5ccc(F)cc5)cc43)cc2)C1 (centres unmarked) [Example 512, (4Z)-4-{[(4-{[3-(Dimethylamino)pyrrolidin-1-yl]methyl}phenyl)amino]methylene}-6-(4-fluorophenyl)isoquinoline-1,3(2H,4H)-dione] |  |  |  | 95 to 96 °C | 6.70 | < 4.30 | < 4.30 |  |  |  |  | 5.63 | 5.92 | 5.52 | 5.57
CN1CCC(c2ccc(N/C=C3\C(=O)NC(=O)c4ccc(Br)cc43)cc2)CC1 [Example 344, (4Z)-6-Bromo-4-({[4-(1-methylpiperidin-4-yl)phenyl]amino}methylene)isoquinoline-1,3(2H,4H)-dione] | 6.34 | < 4.30 | < 4.30 | 217 to 218 °C |  |  |  | 5.38 | 5.59 | 5.55 | 5.80 |  |  |  | 
CC1CN(C)[C@H](C)CN1c1ccc(N/C=C2\C(=O)NC(=O)c3ccc(Br)cc32)cc1 (stereo in doubt) [Example 238, (4Z)-6-Bromo-4-[({4-[(2S,5R)-2,4,5-trimethylpiperazin-1-yl]phenyl}amino)methylene]-isoquinoline-1,3(2H,4H)-dione] | 5.32 | < 4.30 | < 4.30 | 184 to 185 °C |  |  |  | 5.13 | 5.17 | 5.37 | 6.00 |  |  |  | 
O=C1NC(=O)c2ccc(-c3ccc(CN4CCCCC4)cc3)cc2C1=CNc1ccc(CN2CCCCC2)cc1 [Example 125, 6-(4-Piperidin-1-ylmethyl-phenyl)-4-[(4-piperidin-1-ylmethyl-phenylamino)-methylene]-4H-isoquinoline-1,3-dione] | 4.35 | < 4.30 | < 4.30 | 159 to 160 °C |  |  |  | 5.41 | 5.92 | 5.96 | 5.74 |  |  |  | 
O=C1NCc2ccccc2C1=CNc1ccc(CN2CCCCC2)cc1 [Example 162, 4-[(4-Piperidin-1-ylmethyl-phenylamino)-methylene]-1,4-dihydro-2H-isoquinolin-3-one] | 4.73 | < 4.30 | < 4.30 | 188 to 189 °C (dec.) |  |  |  | 4.64 | 5.36 | 5.04 | 5.41 |  |  |  | 
C[C@@H]1CN(c2ccc(N/C=C3\C(=O)NC(=O)c4ccc(-c5ccoc5)cc43)nc2)C[C@H](C)N1 [Example 468, (4Z)-4-[({5-[(3R,5S)-3,5-Dimethylpiperazin-1-yl]pyridin-2-yl}amino)methylene]-6-(3-furyl)isoquinoline-1,3(2H,4H)-dione] |  |  |  | 230 to 231 °C | 6.77 | < 4.30 | < 4.30 |  |  |  |  | 5.68 | 5.96 | 5.80 | 5.82
O=C1NC(=O)c2ccc(I)cc2/C1=C/Nc1ccc(CN2CCCCC2CO)cc1 (centres unmarked) [Example 439, (4Z)-4-{[(4-{[2-(Hydroxymethyl)piperidin-1-yl]methyl}phenyl)amino]methylene}-6-iodoisoquinoline-1,3(2H,4H)-dione] | 6.07 | < 4.30 | < 4.30 | 205 to 206 °C |  |  |  |  |  |  |  | 6.42 | 5.46 | 5.60 | 6.12
CN1CCN(c2ccc(N/C=C3\C(=O)NC(=O)c4ccc(C#Cc5ccccc5)cc43)cc2)CC1 [Example 171, (4Z)-4-({[4-(4-Methylpiperazin-1-yl)phenyl]amino}methylene)-6-(phenylethynyl)-isoquinoline-1,3(2H,4H)-dione] | 5.64 | < 4.30 | 4.48 | 169 to 170 °C |  |  |  | 5.29 | 5.92 | 5.01 | 5.52 |  |  |  | 

Continued by rising pIC50 (cyclin D1/cdk 4 enzyme; [1]), values first:

pIC50 (cyclin D1/cdk 4 enzyme; [1]) | pIC50 (cyclin E/CDK2 enzyme; [2]) | pIC50 (cyclin B/CDK1 enzyme; [3]) | melting point | pIC50 (cyclin D1/cdk 4 enzyme; [5]) | pIC50 (cyclin E/CDK2 enzyme; [6]) | pIC50 (cyclin B/CDK1 enzyme; [7]) | Compound | pIC50 (BT474; [4]) | pIC50 (HCT-116; three days) | pIC50 (LoVo; three days) | pIC50 (MCF-7; three days) | pIC50 (BT474; [8]) | pIC50 (HCT-116; 3 days) | pIC50 (LoVo; 3 days) | pIC50 (MCF-7; 3 days)
6.35 | 4.59 | 4.84 | 195 to 196 °C |  |  |  | C[C@@H]1CN(c2c(F)cc(N/C=C3\C(=O)NC(=O)c4ccc(-c5ccsc5)cc43)cc2F)C[C@H](C)N1 [Example 383, (4Z)-4-[({4-[(3R,5S)-3,5-Dimethylpiperazin-1-yl]-3,5-difluorophenyl}amino)methylene]-6-thien-3-ylisoquinoline-1,3(2H,4H)-dione] | 5.89 | 6.08 | 5.59 | 5.68 |  |  |  | 
6.41 | < 4.30 | < 4.30 | 219 to 220 °C |  |  |  | Cc1cc(N/C=C2\C(=O)NC(=O)c3ccc(-c4ccsc4)cc32)cnc1N1C[C@@H](C)N[C@@H](C)C1 [Example 356, (4Z)-4-[({6-[(3R,5S)-3,5-Dimethylpiperazin-1-yl]-5-methylpyridin-3-yl}amino)methylene]-6-thien-3-ylisoquinoline-1,3(2H,4H)-dione] | 5.52 | 5.80 | 5.55 | 5.57 |  |  |  | 
6.51 | 4.36 | 4.45 | 232 to 233 °C |  |  |  | COc1ccc(-c2ccc3c(c2)/C(=C/Nc2ccc(CN4CCCC4C)cc2)C(=O)NC3=O)cc1 (centres unmarked) [Example 358, (4Z)-6-(4-Methoxyphenyl)-4-[({4-[(2-methylpyrrolidin-1-yl)methyl]phenyl}amino)-methylene]-isoquinoline-1,3(2H,4H)-dione] | 5.59 | 5.85 | 5.52 | 5.60 |  |  |  | 
6.85 | < 4.30 | 4.40 | 214 to 215 °C |  |  |  | C[C@@H]1CN(c2ccc(N/C=C3\C(=O)NC(=O)c4ccc(-c5ccsc5)cc43)cc2F)C[C@H](C)N1 [Example 325, (4Z)-4-[({4-[(3R,5S)-3,5-Dimethylpiperazin-1-yl]-3-fluorophenyl}amino)methylene]-6-thien-3-ylisoquinoline-1,3(2H,4H)-dione] | 5.92 | 6.14 | 5.62 | 6.00 |  |  |  | 
7.10 | < 4.30 | < 4.30 | 203 to 204 °C |  |  |  | CN1CCN(c2ccc(N/C=C3\C(=O)NC(=O)c4ccc(-c5ccoc5)cc43)cc2F)CC1 [Example 297, (4Z)-4-({[3-Fluoro-4-(4-methylpiperazin-1-yl)phenyl]amino}methylene)-6-(3-furyl)isoquinoline-1,3(2H,4H)-dione] | 5.92 | 5.66 | 5.70 | 6.02 |  |  |  | 
7.40 | < 4.30 | < 4.30 | 179 to 180 °C |  |  |  | COCCOc1ccc(CN/C=C2\C(=O)NC(=O)c3ccc(Br)cc32)cc1O [Example 158] | 4.55 | 4.49 | 4.52 | < 4.30 |  |  |  | 
7.40 | < 4.30 | < 4.30 | 223 to 225 °C (dec.) |  |  |  | O=C1NC(=O)c2ccc(-c3ccoc3)cc2C1=NNc1ccc(CN2CCCCC2)cc1 [Example 156, 6-Furan-3-yl-4-[(4-piperidin-1-ylmethyl-phenyl)-hydrazono]-4H-isoquinoline-1,3-dione] | 5.59 | 5.60 | 5.19 | 5.82 |  |  |  | 
